{"source": "paper PMC4816084", "about": "(Bioorganic & medicinal chemistry letters, 2016)", "key": {"[1]": {"settings": "cited from earlier work; for susceptibility to glucuronidation (in words): liver microsomes with UDPGA, 60 min"}, "[2]": {"assay": "Plasma pharmacokinetics after oral administration in mice", "settings": "30 mg/kg po"}, "[3]": {"assay": "Metabolic stability in mouse liver microsomes", "assay_type": "in vitro ADME", "settings": "for susceptibility to glucuronidation (in words): liver microsomes with UDPGA; for stability in the presence of NADPH (in words): mouse liver microsomes"}, "plasma D-serine levels [4]": {"test_system": "plasma D-serine levels", "assay": "Effect on D-serine plasma pharmacokinetics after oral co-administration in mice", "assay_type": "in vivo", "settings": "inhibitor and D-serine both 30 mg/kg po"}, "[5]": {"assay": "Binding to mouse plasma protein", "assay_type": "in vitro ADME"}, "[6]": {"test_system": "dizocilpine-induced prepulse inhibition deficits", "settings": "mouse, with D-serine exposure enhancement; cited from earlier work"}, "recombinant human DAAO": {"biological_target": "recombinant human DAAO (Homo sapiens, UniProt P14920)", "sequence (P14920 whole entry)": "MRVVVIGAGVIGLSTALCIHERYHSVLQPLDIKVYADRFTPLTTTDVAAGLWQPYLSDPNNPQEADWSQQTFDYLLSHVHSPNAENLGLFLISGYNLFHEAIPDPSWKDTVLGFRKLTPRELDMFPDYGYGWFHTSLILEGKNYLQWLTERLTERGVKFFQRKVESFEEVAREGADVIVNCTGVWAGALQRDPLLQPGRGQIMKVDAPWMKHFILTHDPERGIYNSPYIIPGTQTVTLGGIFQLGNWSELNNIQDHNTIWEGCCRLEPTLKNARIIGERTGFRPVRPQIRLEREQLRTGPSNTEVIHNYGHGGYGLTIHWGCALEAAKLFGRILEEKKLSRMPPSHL", "assay": "Inhibition of recombinant human DAAO", "assay_type": "biochemical", "settings": "human DAAO IC50 ratio"}, "[7]": {"settings": "mice; cited from earlier work"}, "plasma D-serine levels [8]": {"test_system": "plasma D-serine levels", "settings": "mice, oral co-administration with D-serine; cited from earlier work"}}, "note": "Where two headings read alike, the source gives them in different places."}
{"smiles": "O=c1cc(CSc2ccc(Cl)c(Cl)c2)occ1O", "note": "[Compound 1]", "values": [{"measurement": "susceptibility to glucuronidation (in words)", "setting": "[1]", "value": "extensively glucuronidated"}, {"measurement": "% remaining after 60 min w/UDPGA", "setting": "[1]; mouse liver microsomes", "value": 5, "unit": "%"}]}
{"smiles": "O=c1[nH]nc(CCc2ccccc2)nc1O", "note": "[Compound 6b, 6-hydroxy-3-phenethyl-1,2,4-triazin-5(2H)-one]", "values": [{"measurement": "time of Cmax after administration", "setting": "[2]", "value": 30, "unit": "min"}, {"measurement": "susceptibility to glucuronidation (in words)", "setting": "[3]", "value": "resistant to glucuronidation"}, {"measurement": "stability in the presence of NADPH (in words)", "setting": "[3]", "value": "stable"}, {"measurement": "D-serine AUC0–6hr on co-administration", "setting": "plasma D-serine levels [4]", "value": 74.2, "unit": "µg·h/mL"}, {"measurement": "binding to mouse plasma protein", "setting": "[5]", "value": 74, "unit": "%"}]}
{"smiles": "O=c1[nH]nc(SCc2ccc3cc(F)ccc3c2)nc1O", "note": "[Compound 6m, 3-((6-fluoronaphthalen-2-yl)methylthio)-6-hydroxy-1,2,4-triazin-5(2H)-one]", "values": [{"measurement": "susceptibility to glucuronidation (in words)", "setting": "[3]", "value": "resistant to glucuronidation"}, {"measurement": "stability in the presence of NADPH (in words)", "setting": "[3]", "value": "stable"}]}
{"smiles": "O=c1[nH]oc2cc(Cl)ccc12", "note": "[CBIO, 6-chloro-1,2-benzisoxazol-3(2H)-one]", "values": [{"measurement": "effect on dizocilpine-induced prepulse inhibition deficits", "setting": "[6]", "value": "attenuation"}]}
{"smiles": "O=c1[nH]nc(SCc2ccc(-c3ccccc3)cc2)nc1O", "note": "[Compound 6j]", "values": [{"measurement": "fold more potent than the corresponding meta-phenyl derivative 6k", "setting": "recombinant human DAAO", "value": 8, "unit": "fold"}]}
{"smiles": "O=c1[nH]c(=O)n(Cc2cccc3ccccc23)nc1O", "note": "[Compound 3]", "values": [{"measurement": "AUC following oral administration", "setting": "[7]", "value": 12900, "unit": "ng·h/mL"}, {"measurement": "degree of enhancement in plasma D-serine levels", "setting": "plasma D-serine levels [8]", "value": 2.2, "unit": "fold"}, {"measurement": "susceptibility to glucuronidation (in words)", "setting": "[1]", "value": "complete resistance to glucuronidation"}]}
{"smiles": "O=c1[nH]nc(CCc2cc(F)cc(F)c2)cc1O", "note": "[Compound 2b]", "values": [{"measurement": "susceptibility to glucuronidation (in words)", "setting": "[1]", "value": "some degree of metabolic stability"}, {"measurement": "% remaining after 60 min w/NADPH", "setting": "[1]; mouse liver microsomes, NADPH", "value": 92, "unit": "%"}, {"measurement": "% remaining after 60 min w/UDPGA", "setting": "[1]; mouse liver microsomes", "value": 59, "unit": "%"}]}
